Reference: ChEMBL document CHEMBL5528056, “BAY-9835: Discovery of the First Orally Bioavailable ADAMTS7 Inhibitor” (J Med Chem, 2024)
Where “and” joins values, the source holds several entries; their conditions need not be identical. Identical values can stand only once.

How the values were obtained:
[1] = target: A disintegrin and metalloproteinase with thrombospondin motifs 7 (Homo sapiens, UniProt Q9UKP4); assay: Inhibition of recombinant ADAMTS7 (unknown origin) using HiLyteFluor-488 DELSSMVLELRGLRT-K(QXL520)-E-NH2 as substrate incubated for 120 mins by FRET assay
[2] = Selectivity ratio of IC50 for ADAMTS5 (unknown origin) to IC50 for ADAMTS7 (unknown origin)
[3] = Selectivity ratio of IC50 for ADAMTS4 (unknown origin) to IC50 for ADAMTS7 (unknown origin)
[4] = Selectivity ratio of IC50 for ADAM17 (unknown origin) to IC50 for ADAMTS7 (unknown origin)
[5] = Selectivity ratio of IC50 for MMP12 (unknown origin) to IC50 for ADAMTS7 (unknown origin)
[6] = Selectivity ratio of IC50 for MMP15 (unknown origin) to IC50 for ADAMTS7 (unknown origin)
[7] = Selectivity ratio of IC50 for MMP2 (unknown origin) to IC50 for ADAMTS7 (unknown origin)
[8] = Selectivity ratio of IC50 for ADAMTS12 (unknown origin) to IC50 for ADAMTS7 (unknown origin)
[9] = Clearance in iv-dosed Wistar rat measured after 24 hrs by HPLC-MS/MS analysis; format: ADME; details: in vivo
[10] = Oral bioavailability iv-dosed Wistar rat measured after 24 hrs by HPLC-MS/MS analysis; format: ADME, organism-based; details: in vivo
[11] = Unbound plasma protein binding in iv-dosed Wistar rat measured after 24 hrs by HPLC-MS/MS analysis; format: ADME, cell-free
Cytochrome P450 3A4 = Cytochrome P450 3A4 (Homo sapiens, UniProt P08684); assay: Induction of CYP3A4 in human hepatocytes assessed as threshold concentration incubated for 48 hrs by qPCR analysis; format: ADME, cell-based, Hepatocyte
[12] = AUC (infinity) in iv-dosed Wistar rat by HPLC-MS/MS analysis; format: ADME; details: in vivo

Chain of A disintegrin and metalloproteinase with thrombospondin motifs 7 (Q9UKP4 whole entry): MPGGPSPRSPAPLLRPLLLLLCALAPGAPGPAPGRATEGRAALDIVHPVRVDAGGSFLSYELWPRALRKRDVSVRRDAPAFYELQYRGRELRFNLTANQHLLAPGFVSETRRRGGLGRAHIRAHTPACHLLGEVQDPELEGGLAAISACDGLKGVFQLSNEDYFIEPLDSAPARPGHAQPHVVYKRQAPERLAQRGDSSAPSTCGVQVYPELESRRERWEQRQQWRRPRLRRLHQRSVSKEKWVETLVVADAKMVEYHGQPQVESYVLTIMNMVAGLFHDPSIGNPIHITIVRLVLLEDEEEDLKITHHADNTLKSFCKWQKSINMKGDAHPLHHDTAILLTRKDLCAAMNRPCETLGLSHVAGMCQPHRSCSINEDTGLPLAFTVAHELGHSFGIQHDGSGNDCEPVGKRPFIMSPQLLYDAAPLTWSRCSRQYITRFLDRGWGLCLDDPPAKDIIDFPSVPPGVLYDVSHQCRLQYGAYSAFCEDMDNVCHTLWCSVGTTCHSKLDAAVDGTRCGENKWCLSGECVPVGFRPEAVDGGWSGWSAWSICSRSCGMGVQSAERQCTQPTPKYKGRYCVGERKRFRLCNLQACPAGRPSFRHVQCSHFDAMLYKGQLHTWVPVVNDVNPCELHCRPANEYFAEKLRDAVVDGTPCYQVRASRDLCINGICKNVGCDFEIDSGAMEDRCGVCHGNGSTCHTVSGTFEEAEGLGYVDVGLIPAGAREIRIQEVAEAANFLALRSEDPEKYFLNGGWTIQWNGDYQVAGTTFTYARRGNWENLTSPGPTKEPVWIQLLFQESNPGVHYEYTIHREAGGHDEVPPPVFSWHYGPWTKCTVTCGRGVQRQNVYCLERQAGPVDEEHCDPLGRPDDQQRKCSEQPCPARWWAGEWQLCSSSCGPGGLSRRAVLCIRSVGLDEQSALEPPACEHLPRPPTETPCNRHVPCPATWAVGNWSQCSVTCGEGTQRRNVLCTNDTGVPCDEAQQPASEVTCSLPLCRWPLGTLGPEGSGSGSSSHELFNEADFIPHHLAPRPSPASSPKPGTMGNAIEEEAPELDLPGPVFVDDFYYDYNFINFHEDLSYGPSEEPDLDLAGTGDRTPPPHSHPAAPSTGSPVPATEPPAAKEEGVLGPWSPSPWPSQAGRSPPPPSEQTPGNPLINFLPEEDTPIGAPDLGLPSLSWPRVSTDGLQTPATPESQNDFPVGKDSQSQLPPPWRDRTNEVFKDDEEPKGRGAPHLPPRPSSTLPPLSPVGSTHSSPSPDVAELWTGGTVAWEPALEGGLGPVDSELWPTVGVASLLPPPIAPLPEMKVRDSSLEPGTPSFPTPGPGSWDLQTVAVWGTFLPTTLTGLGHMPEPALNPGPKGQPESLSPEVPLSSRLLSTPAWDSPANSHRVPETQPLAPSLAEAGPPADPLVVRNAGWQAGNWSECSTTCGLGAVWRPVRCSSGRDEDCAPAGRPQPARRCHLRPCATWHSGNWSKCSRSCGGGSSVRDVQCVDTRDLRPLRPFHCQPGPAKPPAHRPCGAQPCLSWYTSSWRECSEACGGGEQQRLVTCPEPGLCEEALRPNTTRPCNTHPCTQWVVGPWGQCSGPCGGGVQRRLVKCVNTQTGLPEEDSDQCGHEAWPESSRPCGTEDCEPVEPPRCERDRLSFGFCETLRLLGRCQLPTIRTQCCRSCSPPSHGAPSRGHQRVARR
Chain of Cytochrome P450 3A4 (P08684 whole entry): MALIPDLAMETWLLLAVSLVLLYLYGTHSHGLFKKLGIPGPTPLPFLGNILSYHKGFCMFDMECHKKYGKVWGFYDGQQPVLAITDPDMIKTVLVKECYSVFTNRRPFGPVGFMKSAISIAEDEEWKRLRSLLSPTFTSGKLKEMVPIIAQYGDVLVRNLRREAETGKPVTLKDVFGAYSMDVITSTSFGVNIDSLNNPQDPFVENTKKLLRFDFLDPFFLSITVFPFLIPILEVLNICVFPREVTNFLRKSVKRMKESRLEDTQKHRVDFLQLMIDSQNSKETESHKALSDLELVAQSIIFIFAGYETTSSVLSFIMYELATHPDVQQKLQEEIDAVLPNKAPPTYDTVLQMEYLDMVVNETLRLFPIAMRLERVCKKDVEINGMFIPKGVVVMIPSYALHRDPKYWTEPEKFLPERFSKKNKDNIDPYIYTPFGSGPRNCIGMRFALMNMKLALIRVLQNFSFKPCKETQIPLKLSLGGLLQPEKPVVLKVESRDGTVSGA

| Structure (SMILES) | IC50 [1] | Ratio IC50 [5] | further results |
| --- | --- | --- | --- |
| Cc1ccc(-c2cccc(C(=O)NC[C@@]3(C4CC4)NC(=O)NC3=O)c2)cc1 | 2300 nM | – | – |
| Cc1ccc(-c2ccccc2C(=O)NC[C@@]2(C3CC3)NC(=O)NC2=O)cc1 | – | 12 and 12.4 | Ratio IC50 [2]: 213; Ratio IC50 [3]: 115; Ratio IC50 [4]: 826; Ratio IC50 [6]: 872; Ratio IC50 [7]: 759 |
| O=C1NC(=O)[C@](CNC(=O)c2ccccc2-c2ccc(C(F)(F)F)cc2)(C2CC2)N1 | – | 11 | CL [9]: 1.7 mL/min/kg |
| O=C1NC(=O)[C@](CNC(=O)c2cnn(Cc3ccc(Cl)cc3)c2)(C2CC2)N1 | 280 nM | 7.4 | – |
| Cc1scnc1C1(CNC(=O)c2ccccc2-c2ccc(C(F)(F)F)cc2)NC(=O)NC1=O (centres undefined) | 6 nM | 188 | CL [9]: 20 mL/min/kg |
| O=C1NC(=O)[C@](CNC(=O)c2cnn(-c3cccc(Cl)c3)n2)(C2CC2)N1 | – | 0.1 | – |
| Cc1ccc(-c2ccc(C(=O)NC[C@@]3(C4CC4)NC(=O)NC3=O)cc2)cc1 | 580 nM | 4.7 10^-4No_unit | – |
| O=C1NC(=O)[C@](CNC(=O)c2cnn(-c3ccccc3)n2)(C2CC2)N1 | 61 nM | – | CL [9]: 12 mL/min/kg; F [10]: 74%; Ratio IC50 [8]: 0.2; Fu [11]: 15% |
| O=C1NC(=O)[C@](CNC(=O)c2cnn(-c3cnsc3)n2)(C2CC2)N1 | – | 0.2 | – |
| O=C1NC(=O)[C@](CNC(=O)c2cnn(-c3cccc(F)c3)n2)(C2CC2)N1 | – | 1.1 | – |
| Cc1cn(-c2ccccc2)nc1C1(CNC(=O)c2ccc(F)c(F)c2-c2ccc(C(F)(F)F)cc2)NC(=O)NC1=O (centres undefined) | 8 nM | – | Ratio IC50 [8]: 14 |
| Cn1ccnc1C1(CNC(=O)c2ccccc2-c2ccc(C(F)(F)F)cc2)NC(=O)NC1=O (single isomer, unassigned) | 3 nM | 450 | Activity (Cytochrome P450 3A4): 0.6 µM; AUC [12]: 0.6 kg·h/L |
| Cc1nc(C2(CNC(=O)c3ccccc3-c3ccc(C(F)(F)F)cc3)NC(=O)NC2=O)c(C)s1 (centres undefined) | 15 nM | 36 | – |
| O=C1NC(=O)[C@](CNC(=O)c2cnn(-c3ccccc3F)n2)(C2CC2)N1 | – | 0.4 | – |
| O=C1NC(=O)[C@](CNC(=O)c2cnn(-c3ccccc3)c2)(C2CC2)N1 | – | 0.03 | – |
| O=C1NC(=O)[C@](CNC(=O)c2cnn(-c3ccc(F)cn3)n2)(C2CC2)N1 | 115 nM | 0.6 | – |
| Cc1ccc(-n2ncc(C(=O)NC[C@@]3(C4CC4)NC(=O)NC3=O)n2)cc1 | – | 0.1 | – |
| O=C1NC(=O)[C@](CNC(=O)c2cnn(-c3ccc(F)cc3)n2)(C2CC2)N1 | – | – | Ratio IC50 [2]: 12700; Ratio IC50 [3]: > 20800; Ratio IC50 [4]: 863; Ratio IC50 [6]: 41700; Ratio IC50 [8]: 26 |
| Cn1nccc1[C@]1(CNC(=O)c2ccccc2-c2ccc(C(F)(F)F)cc2)NC(=O)NC1=O | – | – | Activity (Cytochrome P450 3A4): 16.6 µM; Ratio IC50 [2]: 3220; Ratio IC50 [3]: 1440; Ratio IC50 [4]: 303; Ratio IC50 [6]: 6390; Ratio IC50 [8]: 1; Ratio IC50 [7]: 8320 |
| O=C1NC(=O)C(CNC(=O)c2ccccc2-c2ccc(C(F)(F)F)cc2)(c2ncsc2C(F)(F)F)N1 (centres undefined) | – | 31 | – |
| O=C1NC(=O)C(CNC(=O)c2ccccc2-c2ccc(C(F)(F)F)cc2)(c2cscn2)N1 (centres undefined) | – | 67 | CL [9]: 23.3 mL/min/kg |
| O=C1NC(=O)[C@](CNC(=O)c2cnn(Cc3nccs3)n2)(C2CC2)N1 | 910 nM | 4.6 | – |
| Cn1cc(Cn2ncc(C(=O)NC[C@@]3(C4CC4)NC(=O)NC3=O)n2)cn1 | 850 nM | 29.4 | – |
| Cc1nc(Cn2ncc(C(=O)NC[C@@]3(C4CC4)NC(=O)NC3=O)n2)cs1 | 930 nM | 33.5 | – |
| O=C1NC(=O)[C@](CNC(=O)c2cnn(-c3ccc(Cl)cc3)n2)(C2CC2)N1 | – | 0.8 | – |

Continued, in another order:

| IC50 [1] | Ratio IC50 [5] | Structure (SMILES) | further results |
| --- | --- | --- | --- |
| – | 1450 | Cn1nc(-c2ccccc2)cc1C1(CNC(=O)c2ccc(F)c(F)c2-c2ccc(C(F)(F)F)cc2)NC(=O)NC1=O (centres undefined) | Ratio IC50 [2]: 12700; Ratio IC50 [3]: > 20800; Ratio IC50 [4]: 863; Ratio IC50 [6]: 41700; Ratio IC50 [8]: 26 |
| 9 nM | – | Cc1sc(-c2cccnc2)nc1C1(CNC(=O)c2ccc(F)c(F)c2-c2ccc(C(F)(F)F)cc2)NC(=O)NC1=O (centres undefined) | Ratio IC50 [8]: 14 |
| 19 nM | – | Cn1nccc1[C@]1(CNC(=O)c2ccc(F)cc2-c2ccc(C(F)(F)F)cc2)NC(=O)NC1=O | CL [9]: 15 mL/min/kg |
| 5 nM | – | Cn1nccc1[C@]1(CNC(=O)c2cccc(F)c2-c2ccc(C(F)(F)F)cc2)NC(=O)NC1=O | CL [9]: 12 mL/min/kg |
| 16 nM | – | Cn1nccc1[C@]1(CNC(=O)c2cccc(Cl)c2-c2ccc(C(F)(F)F)cc2)NC(=O)NC1=O | – |
| 19 nM | – | Cn1nccc1[C@]1(CNC(=O)c2cc(F)ccc2-c2ccc(C(F)(F)F)cc2)NC(=O)NC1=O | CL [9]: 10 mL/min/kg |
| 10 nM | – | Cn1nccc1[C@]1(CNC(=O)c2ccc(C(F)(F)F)c(F)c2-c2ccc(C(F)(F)F)cc2)NC(=O)NC1=O | – |
| – | 96 | CCn1nccc1C1(CNC(=O)c2ccccc2-c2ccc(C(F)(F)F)cc2)NC(=O)NC1=O (centres undefined) | CL [9]: 17 mL/min/kg |
| 3 nM | – | Cn1nccc1[C@]1(CNC(=O)c2ccc(Cl)c(F)c2-c2ccc(C(F)(F)F)cc2)NC(=O)NC1=O | – |
| 47 nM | – | Cc1sc(-c2ccccc2)nc1C1(CNC(=O)c2ccc(F)c(F)c2-c2ccc(C(F)(F)F)cc2)NC(=O)NC1=O (centres undefined) | Ratio IC50 [8]: 10 |
| 29 nM | – | COc1cccc(C(=O)NC[C@@]2(c3ccnn3C)NC(=O)NC2=O)c1-c1ccc(C(F)(F)F)cc1 | – |
| 79 nM | – | Cn1nccc1[C@]1(CNC(=O)c2c(F)cccc2-c2ccc(C(F)(F)F)cc2)NC(=O)NC1=O | – |
| – | 18 | Cc1c(C2(CNC(=O)c3ccccc3-c3ccc(C(F)(F)F)cc3)NC(=O)NC2=O)cnn1C (centres undefined) | – |
| – | 29 | O=C1NC(=O)C(CNC(=O)c2ccccc2-c2ccc(C(F)(F)F)cc2)(c2ccnn2CC(F)(F)F)N1 (centres undefined) | – |
